The test has as its system 2G12. Description: Binding curve and KD determination of 2G12-glycopeptide interaction (radiolabeled glycopeptide, protein G magnetic bead capture, scintillation counting). Particulars: Table 4, error = standard error of fit; for Fmax [%]: maximal fraction bound from curve fit; for Kd: ribosomally translated radiolabeled glycopeptide with His6/FLAG tag, room temperature, fit Fbound=(Fmax[2G12])/(KD+[2G12]). The method, boiled down: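 Radiolabeled glycopeptide (<4 pmol) from PURE-system translation with click glycosylation was incubated with 100 nM 2G12 at room temperature. Complexes were captured on protein G beads and eluted at 70° C. Bound and unbound fractions were counted by scintillation, run at least in triplicate, and KD derived from binding curves.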

The Kd is the concentration at which binding is half-saturated.

Regarding `CC[C@H](C)[C@H](NC(=O)[C@H](CO)NC(=O)[C@@H](NC(=O)[C@H](CCc1cn(C2CCC(OC3O[C@H](CO[C@H]4O[C@H](CO[C@H]5O[C@H](CO)[C@@H](O)[C@H](O)[C@@H]5O[C@H]5O[C@H](CO)[C@@H](O)[C@H](O)[C@@H]5O)[C@@H](O)[C@H](O[C@H]5O[C@H](CO)[C@@H](O)[C@H](O)[C@@H]5O[C@H]5O[C@H](CO)[C@@H](O)[C@H](O)[C@@H]5O)[C@@H]4O)[C@@H](O)[C@H](O[C@H]4O[C@H](CO)[C@@H](O)[C@H](O)[C@@H]4O[C@H]4O[C@H](CO)[C@@H](O)[C@H](O)[C@@H]4O[C@H]4O[C@H](CO)[C@@H](O)[C@H](O)[C@@H]4O)[C@@H]3O)CC2)nn1)NC=O)[C@@H](C)O)C(=O)N1CCC[C@H]1C(=O)N[C@@H](Cc1ccc(O)cc1)C(=O)N[C@H](C(=O)N[C@@H](Cc1ccc(O)cc1)C(=O)N[C@@H](CC(C)C)C(=O)N[C@@H](CC(N)=O)C(=O)N[C@@H](CCCNC(=N)N)C(=O)N[C@@H](CO)C(=O)N[C@@H](CC(C)C)C(=O)N[C@@H](Cc1c[nH]c2ccccc12)C(=O)N[C@H](C(=O)N[C@@H](CC(N)=O)C(=O)N[C@@H](Cc1ccc(O)cc1)C(=O)N[C@@H](CCCNC(=N)N)C(=O)N[C@H](C(=O)N[C@@H](CC(N)=O)C(=O)N[C@@H](CO)C(=O)N[C@@H](Cc1c[nH]c2ccccc12)C(=O)N[C@@H](CO)C(=O)N[C@@H](CCc1cn(C2CCC(OC3O[C@H](CO[C@H]4O[C@H](CO[C@H]5O[C@H](CO)[C@@H](O)[C@H](O)[C@@H]5O[C@H]5O[C@H](CO)[C@@H](O)[C@H](O)[C@@H]5O)[C@@H](O)[C@H](O[C@H]5O[C@H](CO)[C@@H](O)[C@H](O)[C@@H]5O[C@H]5O[C@H](CO)[C@@H](O)[C@H](O)[C@@H]5O)[C@@H]4O)[C@@H](O)[C@H](O[C@H]4O[C@H](CO)[C@@H](O)[C@H](O)[C@@H]4O[C@H]4O[C@H](CO)[C@@H](O)[C@H](O)[C@@H]4O[C@H]4O[C@H](CO)[C@@H](O)[C@H](O)[C@@H]4O)[C@@H]3O)CC2)nn1)C(=O)N[C@@H](CO)C(=O)N[C@@H](CCCCN)C(=O)N[C@@H](CC(N)=O)C(=O)N[C@H](C(=O)N[C@@H](CC(N)=O)C(=O)N[C@H](C(=O)N[C@@H](CCc1cn(C2CCC(OC3O[C@H](CO[C@H]4O[C@H](CO[C@H]5O[C@H](CO)[C@@H](O)[C@H](O)[C@@H]5O[C@H]5O[C@H](CO)[C@@H](O)[C@H](O)[C@@H]5O)[C@@H](O)[C@H](O[C@H]5O[C@H](CO)[C@@H](O)[C@H](O)[C@@H]5O[C@H]5O[C@H](CO)[C@@H](O)[C@H](O)[C@@H]5O)[C@@H]4O)[C@@H](O)[C@H](O[C@H]4O[C@H](CO)[C@@H](O)[C@H](O)[C@@H]4O[C@H]4O[C@H](CO)[C@@H](O)[C@H](O)[C@@H]4O[C@H]4O[C@H](CO)[C@@H](O)[C@H](O)[C@@H]4O)[C@@H]3O)CC2)nn1)C(=O)N1CCC[C@H]1C(=O)N[C@@H](CC(C)C)C(=O)NCC(=O)N[C@@H](CO)C(=O)NCC(=O)N[C@@H](CO)C(=O)N[C@@H](CC(C)C)C(=O)NCC(=O)N[C@@H](Cc1c[nH]cn1)C(=O)N[C@@H](Cc1c[nH]cn1)C(=O)N[C@@H](Cc1c[nH]cn1)C(=O)N[C@@H](Cc1c[nH]cn1)C(=O)N[C@@H](Cc1c[nH]cn1)C(=O)N[C@@H](Cc1c[nH]cn1)C(=O)N[C@@H](CCCNC(=N)N)C(=O)N[C@@H](CC(=O)O)C(=O)N[C@@H](Cc1ccc(O)cc1)C(=O)N[C@@H](CCCCN)C(=O)N[C@@H](CC(=O)O)C(=O)N[C@@H](CC(=O)O)C(=O)N[C@@H](CC(=O)O)C(=O)N[C@@H](CC(=O)O)C(=O)N[C@@H](CCCCN)C(=O)O)C(C)C)C(C)C)C(C)C)[C@@H](C)O)[C@@H](C)O` (stereo partly shown) [Clone 10V9, XTSIPYTYLNRSLWTNYRVNSWSXSKNVNVXPL], the “Fmax [%]” value worked out at 85 ± 0.68% and the Kd amounted to 3.9 ± 0.11 nM.

For `CC[C@H](C)[C@H](NC(=O)[C@H](CCC(=O)O)NC(=O)CNC(=O)[C@H](Cc1c[nH]c2ccccc12)NC(=O)[C@@H](NC(=O)[C@@H](NC(=O)[C@@H]1CCCN1C(=O)[C@H](CCc1cn(C2CCC(OC3O[C@H](CO[C@H]4O[C@H](CO[C@H]5O[C@H](CO)[C@@H](O)[C@H](O)[C@@H]5O[C@H]5O[C@H](CO)[C@@H](O)[C@H](O)[C@@H]5O)[C@@H](O)[C@H](O[C@H]5O[C@H](CO)[C@@H](O)[C@H](O)[C@@H]5O[C@H]5O[C@H](CO)[C@@H](O)[C@H](O)[C@@H]5O)[C@@H]4O)[C@@H](O)[C@H](O[C@H]4O[C@H](CO)[C@@H](O)[C@H](O)[C@@H]4O[C@H]4O[C@H](CO)[C@@H](O)[C@H](O)[C@@H]4O[C@H]4O[C@H](CO)[C@@H](O)[C@H](O)[C@@H]4O)[C@@H]3O)CC2)nn1)NC(=O)[C@H](CC(C)C)NC(=O)[C@H](Cc1ccc(O)cc1)NC(=O)[C@@H](NC(=O)[C@H](Cc1ccc(O)cc1)NC(=O)[C@@H](NC(=O)[C@@H]1CCCN1C(=O)[C@@H](NC(=O)[C@H](CO)NC(=O)[C@H](CC(C)C)NC(=O)[C@H](CCc1cn(C2CCC(OC3O[C@H](CO[C@H]4O[C@H](CO[C@H]5O[C@H](CO)[C@@H](O)[C@H](O)[C@@H]5O[C@H]5O[C@H](CO)[C@@H](O)[C@H](O)[C@@H]5O)[C@@H](O)[C@H](O[C@H]5O[C@H](CO)[C@@H](O)[C@H](O)[C@@H]5O[C@H]5O[C@H](CO)[C@@H](O)[C@H](O)[C@@H]5O)[C@@H]4O)[C@@H](O)[C@H](O[C@H]4O[C@H](CO)[C@@H](O)[C@H](O)[C@@H]4O[C@H]4O[C@H](CO)[C@@H](O)[C@H](O)[C@@H]4O[C@H]4O[C@H](CO)[C@@H](O)[C@H](O)[C@@H]4O)[C@@H]3O)CC2)nn1)NC(=O)[C@H](CCCNC(=N)N)NC(=O)[C@H](Cc1ccccc1)NC(=O)[C@@H]1CCCN1C(=O)[C@H](CC(N)=O)NC(=O)[C@@H](NC(=O)[C@H](CC(N)=O)NC(=O)[C@@H](NC(=O)[C@H](CO)NC(=O)[C@@H](NC(=O)[C@@H](NC(=O)[C@@H](NC(=O)[C@@H]1CCCN1C(=O)[C@H](CC(C)C)NC(=O)[C@@H](NC(=O)[C@H](CCc1cn(C2CCC(OC3O[C@H](CO[C@H]4O[C@H](CO[C@H]5O[C@H](CO)[C@@H](O)[C@H](O)[C@@H]5O[C@H]5O[C@H](CO)[C@@H](O)[C@H](O)[C@@H]5O)[C@@H](O)[C@H](O[C@H]5O[C@H](CO)[C@@H](O)[C@H](O)[C@@H]5O[C@H]5O[C@H](CO)[C@@H](O)[C@H](O)[C@@H]5O)[C@@H]4O)[C@@H](O)[C@H](O[C@H]4O[C@H](CO)[C@@H](O)[C@H](O)[C@@H]4O[C@H]4O[C@H](CO)[C@@H](O)[C@H](O)[C@@H]4O[C@H]4O[C@H](CO)[C@@H](O)[C@H](O)[C@@H]4O)[C@@H]3O)CC2)nn1)NC=O)C(C)C)[C@@H](C)O)[C@@H](C)CC)[C@@H](C)CC)[C@@H](C)O)C(C)C)[C@@H](C)CC)[C@@H](C)O)[C@@H](C)O)[C@@H](C)CC)[C@@H](C)O)C(=O)NCC(=O)N[C@@H](CO)C(=O)NCC(=O)N[C@@H](CO)C(=O)N[C@@H](CC(C)C)C(=O)NCC(=O)N[C@@H](Cc1c[nH]cn1)C(=O)N[C@@H](Cc1c[nH]cn1)C(=O)N[C@@H](Cc1c[nH]cn1)C(=O)N[C@@H](Cc1c[nH]cn1)C(=O)N[C@@H](Cc1c[nH]cn1)C(=O)N[C@@H](Cc1c[nH]cn1)C(=O)N[C@@H](CCCNC(=N)N)C(=O)N[C@@H](CC(=O)O)C(=O)N[C@@H](Cc1ccc(O)cc1)C(=O)N[C@@H](CCCCN)C(=O)N[C@@H](CC(=O)O)C(=O)N[C@@H](CC(=O)O)C(=O)N[C@@H](CC(=O)O)C(=O)N[C@@H](CC(=O)O)C(=O)N[C@@H](CCCCN)C(=O)O` (stereo partly shown) [Clone 10V8, XVLPTIISTNVNPFRXLSIPTYTYLXPITWGEI], the “Fmax [%]” value is recorded as 94 ± 2.0% and the affinity, expressed as Kd, was 4.6 ± 0.34 nM.

(Values after US11345912B2, “Directed evolution of multivalent glycopeptides that tightly bind to target proteins” (Brandeis University, priority 2013, dated 2022).)
